Laboratory results published in US20240270762A1, “PENICILLIN-BINDING PROTEIN INHIBITORS” (priority 2021, published 2024).
Converted amounts (≈) assume the structure as drawn.

Tests used:
[1] = target: T1, A. baumannii PBP1a (Acinetobacter baumannii, UniProt A0ABX6CK30); assay: Bocillin-FL competition binding via gel filtration, A. baumannii PBP1a; settings: competition binding assay using Bocillin-FL via gel filtration; read-out: A. baumannii PBP1a Potency
T1 sequence (A0ABX6CK30 1-851): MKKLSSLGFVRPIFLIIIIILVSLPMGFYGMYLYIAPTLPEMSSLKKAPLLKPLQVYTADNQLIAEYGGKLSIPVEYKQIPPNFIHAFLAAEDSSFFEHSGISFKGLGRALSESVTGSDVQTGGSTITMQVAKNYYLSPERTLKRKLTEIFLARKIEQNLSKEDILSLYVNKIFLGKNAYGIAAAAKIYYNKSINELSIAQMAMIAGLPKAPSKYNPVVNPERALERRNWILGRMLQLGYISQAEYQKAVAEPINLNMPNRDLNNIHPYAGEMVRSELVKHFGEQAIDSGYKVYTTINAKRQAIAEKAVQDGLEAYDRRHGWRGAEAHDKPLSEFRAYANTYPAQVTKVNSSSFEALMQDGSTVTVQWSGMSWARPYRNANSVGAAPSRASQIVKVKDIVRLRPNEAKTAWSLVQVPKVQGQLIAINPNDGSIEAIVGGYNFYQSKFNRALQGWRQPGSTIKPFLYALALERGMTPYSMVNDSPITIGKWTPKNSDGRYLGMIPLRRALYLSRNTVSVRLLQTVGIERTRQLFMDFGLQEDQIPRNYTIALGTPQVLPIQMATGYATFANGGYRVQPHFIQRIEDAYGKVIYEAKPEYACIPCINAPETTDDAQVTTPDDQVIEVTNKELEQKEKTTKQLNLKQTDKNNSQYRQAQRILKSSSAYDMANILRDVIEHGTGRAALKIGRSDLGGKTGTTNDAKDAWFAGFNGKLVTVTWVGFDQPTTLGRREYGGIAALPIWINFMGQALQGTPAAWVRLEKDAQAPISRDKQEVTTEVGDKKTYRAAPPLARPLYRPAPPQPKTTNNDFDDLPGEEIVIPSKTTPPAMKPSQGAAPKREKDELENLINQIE
Summary of the method: (§1)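 Competitive equilibrium binding; reporter Bocillin-FL. PBP + inhibitor (titration) pre-incubated → Bocillin-FL, 15 min → gel filtration → fluorescence. EC50 from Hill fit of fraction bound vs [inhibitor].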

[2] = target: A. baumannii PBP2 (Acinetobacter baumannii, UniProt D0C8Z9); assay: Bocillin-FL competition binding via gel filtration, A. baumannii PBP2
Chain of A. baumannii PBP2 (D0C8Z9 whole entry): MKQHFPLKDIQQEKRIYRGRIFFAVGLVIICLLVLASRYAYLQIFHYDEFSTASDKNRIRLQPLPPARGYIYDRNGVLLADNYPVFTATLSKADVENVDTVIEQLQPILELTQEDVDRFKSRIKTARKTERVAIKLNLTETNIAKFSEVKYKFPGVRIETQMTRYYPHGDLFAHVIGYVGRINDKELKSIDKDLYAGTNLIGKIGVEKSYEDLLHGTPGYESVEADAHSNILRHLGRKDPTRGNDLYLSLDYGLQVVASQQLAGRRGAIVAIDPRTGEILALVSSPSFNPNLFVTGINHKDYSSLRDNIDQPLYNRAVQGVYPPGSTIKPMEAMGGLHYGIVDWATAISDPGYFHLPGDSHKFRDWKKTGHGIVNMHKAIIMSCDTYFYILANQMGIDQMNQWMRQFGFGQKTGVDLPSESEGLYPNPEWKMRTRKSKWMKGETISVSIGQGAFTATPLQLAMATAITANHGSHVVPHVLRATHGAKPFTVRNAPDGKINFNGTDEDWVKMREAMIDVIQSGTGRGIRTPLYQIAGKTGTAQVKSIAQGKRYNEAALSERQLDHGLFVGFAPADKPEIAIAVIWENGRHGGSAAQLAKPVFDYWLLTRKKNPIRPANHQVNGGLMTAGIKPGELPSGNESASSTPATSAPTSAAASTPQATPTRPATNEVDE
Summary of the method: as §1

[3] = test system: B. pseudomallei Bp82; assay: microbe, parasite or virus in culture; type: cell-based; settings: Burkholderia pseudomallei, BP82, read-out: Minimum inhibitory concentration, B. pseudomallei Bp82

| Structure (SMILES) | EC50 [1] [µM] | EC50 [2] [µM] | MIC [3] [µg/mL] |
| --- | --- | --- | --- |
| O=C(NCCCN1CCN(C(=O)NC(C(=O)N[C@H]2Cc3ccc(F)c(C(=O)O)c3OB2O)c2cc(F)c(O)c(O)c2Cl)C(=O)C1=O)c1ccc(O)cc1 (stereo partly drawn) [Example 203, (3R)-3-(2-(2-chloro-5-fluoro-3,4-dihydroxyphenyl)-2-(4-(3-(4-hydroxybenzamido)propyl)-2,3-dioxopiperazine-1-carboxamido)acetamido)-7-fluoro-2-hydroxy-3,4-dihydro-2H-benzo[e][1,2]oxaborinine-8-carboxylic acid] | < 10 | 10 to 50 | < 1 |
| O=C(NCCCN1CCN(C(=O)NC(C(=O)N[C@H]2Cc3ccc(F)c(C(=O)O)c3OB2O)c2cc(F)c(O)c(O)c2Cl)C(=O)C1=O)c1cccc(O)c1 (stereo partly drawn) [Example 204, (3R)-3-(2-(2-chloro-5-fluoro-3,4-dihydroxyphenyl)-2-(4-(3-(3-hydroxybenzamido)propyl)-2,3-dioxopiperazine-1-carboxamido)acetamido)-7-fluoro-2-hydroxy-3,4-dihydro-2H-benzo[e][1,2]oxaborinine-8-carboxylic acid] | 10 to 50 | 10 to 50 | < 1 |
| O=C(NCCCN1CCN(C(=O)NC(C(=O)N[C@H]2Cc3ccc(F)c(C(=O)O)c3OB2O)c2cc(F)c(O)c(O)c2Cl)C(=O)C1=O)c1ccncc1 (stereo partly drawn) [Example 205, (3R)-3-(2-(2-chloro-5-fluoro-3,4-dihydroxyphenyl)-2-(4-(3-(isonicotinamido)propyl)-2,3-dioxopiperazine-1-carboxamido)acetamido)-7-fluoro-2-hydroxy-3,4-dihydro-2H-benzo[e][1,2]oxaborinine-8-carboxylic acid] | 50 to 250 | 10 to 50 | < 1 |
| CN(CCN1CCN(C(=O)N[C@@H](C(=O)N[C@H]2Cc3ccc(F)c(C(=O)O)c3OB2O)c2cc(F)c(O)c(O)c2Cl)C(=O)C1=O)Cc1ccc(N)nc1 [Example 209, (R)-3-((R)-2-(4-(2-(((6-aminopyridin-3-yl)methyl)(methyl)amino)ethyl)-2,3-dioxopiperazine-1-carboxamido)-2-(2-chloro-5-fluoro-3,4-dihydroxyphenyl)acetamido)-7-fluoro-2-hydroxy-3,4-dihydro-2H-benzo[e][1,2]oxaborinine-8-carboxylic acid] | 10 to 50 |  | < 1 |
| O=C(NCCN1CCN(C(=O)NC(C(=O)N[C@H]2Cc3ccc(F)c(C(=O)O)c3OB2O)c2cc(F)c(O)c(O)c2Cl)C(=O)C1=O)c1ccc(O)cc1 (stereo partly drawn) [Example 214, (3R)-3-(2-(2-chloro-5-fluoro-3,4-dihydroxyphenyl)-2-(4-(2-(4-hydroxybenzamido)ethyl)-2,3-dioxopiperazine-1-carboxamido)acetamido)-7-fluoro-2-hydroxy-3,4-dihydro-2H-benzo[e][1,2]oxaborinine-8-carboxylic acid] | 10 to 50 | 10 to 50 | 2 to 4 (≈ 2.68 to 5.36 µM) |
| CN(CCN1CCN(C(=O)NC(C(=O)N[C@H]2Cc3ccc(F)c(C(=O)O)c3OB2O)c2cc(F)c(O)c(O)c2Cl)C(=O)C1=O)S(=O)(=O)c1ccc(C(N)=O)cc1 (stereo partly drawn) [Example 223, (3R)-3-(2-(4-(2-((4-carbamoyl-N-methylphenyl)sulfonamido)ethyl)-2,3-dioxopiperazine-1-carboxamido)-2-(2-chloro-5-fluoro-3,4-dihydroxyphenyl)acetamido)-7-fluoro-2-hydroxy-3,4-dihydro-2H-benzo[e][1,2]oxaborinine-8-carboxylic acid] | < 10 |  | < 1 |
| CN(CCN1CCN(C(=O)NC(C(=O)N[C@H]2Cc3ccc(F)c(C(=O)O)c3OB2O)c2cc(F)c(O)c(O)c2Cl)C(=O)C1=O)S(=O)(=O)c1cccc(C(N)=O)c1 (stereo partly drawn) [Example 224, (3R)-3-(2-(4-(2-((3-carbamoyl-N-methylphenyl)sulfonamido)ethyl)-2,3-dioxopiperazine-1-carboxamido)-2-(2-chloro-5-fluoro-3,4-dihydroxyphenyl)acetamido)-7-fluoro-2-hydroxy-3,4-dihydro-2H-benzo[e][1,2]oxaborinine-8-carboxylic acid] | < 10 |  | < 1 |
| CN(CCN1CCN(C(=O)N[C@@H](C(=O)N[C@H]2Cc3ccc(F)c(C(=O)O)c3OB2O)c2cc(F)c(O)c(O)c2Cl)C(=O)C1=O)Cc1cccc(C(N)=O)c1 [Example 225, (R)-3-((R)-2-(4-(2-((3-carbamoylbenzyl)(methyl)amino)ethyl)-2,3-dioxopiperazine-1-carboxamido)-2-(2-chloro-5-fluoro-3,4-dihydroxyphenyl)acetamido)-7-fluoro-2-hydroxy-3,4-dihydro-2H-benzo[e][1,2]oxaborinine-8-carboxylic acid] | 10 to 50 |  | < 1 |
| CN(CCN1CCN(C(=O)N[C@@H](C(=O)N[C@H]2Cc3ccc(F)c(C(=O)O)c3OB2O)c2cc(F)c(O)c(O)c2Cl)C(=O)C1=O)Cc1ccc(C(N)=O)cc1 [Example 226, (R)-3-((R)-2-(4-(2-((4-carbamoylbenzyl)(methyl)amino)ethyl)-2,3-dioxopiperazine-1-carboxamido)-2-(2-chloro-5-fluoro-3,4-dihydroxyphenyl)acetamido)-7-fluoro-2-hydroxy-3,4-dihydro-2H-benzo[e][1,2]oxaborinine-8-carboxylic acid] | 10 to 50 |  | < 1 |
| O=C(NCCN1CCN(C(=O)NC(C(=O)N[C@H]2Cc3ccc(F)c(C(=O)O)c3OB2O)c2cc(F)c(O)c(O)c2Cl)C1=O)c1nccs1 (stereo partly drawn) [Example 247, (3R)-3-(2-(2-chloro-5-fluoro-3,4-dihydroxyphenyl)-2-(2-oxo-3-(2-(thiazole-2-carboxamido)ethyl)imidazolidine-1-carboxamido)acetamido)-7-fluoro-2-hydroxy-3,4-dihydro-2H-benzo[e][1,2]oxaborinine-8-carboxylic acid] |  | 10 to 50 | < 1 |
| O=C(NCCN1CCN(C(=O)NC(C(=O)N[C@H]2Cc3ccc(F)c(C(=O)O)c3OB2O)c2cc(F)c(O)c(O)c2Cl)C1=O)Nc1cccc(O)c1 (stereo partly drawn) [Example 249, (3R)-3-(2-(2-chloro-5-fluoro-3,4-dihydroxyphenyl)-2-(3-(2-(3-(3-hydroxyphenyl)ureido)ethyl)-2-oxoimidazolidine-1-carboxamido)acetamido)-7-fluoro-2-hydroxy-3,4-dihydro-2H-benzo[e][1,2]oxaborinine-8-carboxylic acid] | 10 to 50 |  | < 1 |
| O=C(O)c1c(F)ccc2c1OB(O)[C@@H](NC(=O)C(NC(=O)N1CCN(S(=O)(=O)CCNC(=O)[C@@H]3CCCN3)C1=O)c1cc(F)c(O)c(O)c1Cl)C2 (stereo partly drawn) [Example 265, (3R)-3-(2-(2-chloro-5-fluoro-3,4-dihydroxyphenyl)-2-(2-oxo-3-((2-((S)-pyrrolidine-2-carboxamido)ethyl)sulfonyl)imidazolidine-1-carboxamido)acetamido)-7-fluoro-2-hydroxy-3,4-dihydro-2H-benzo[e][1,2]oxaborinine-8-carboxylic acid] |  |  | < 1 |
| O=C(O)c1c(F)ccc2c1OB(O)[C@@H](NC(=O)C(NC(=O)N1CCN(S(=O)(=O)CCCNC(=O)[C@@H]3CCCN3)C1=O)c1cc(F)c(O)c(O)c1Cl)C2 (stereo partly drawn) [Example 275, (3R)-3-(2-(2-chloro-5-fluoro-3,4-dihydroxyphenyl)-2-(2-oxo-3-((3-((S)-pyrrolidine-2-carboxamido)propyl)sulfonyl)imidazolidine-1-carboxamido)acetamido)-7-fluoro-2-hydroxy-3,4-dihydro-2H-benzo[e][1,2]oxaborinine-8-carboxylic acid] |  |  | < 1 |
